Assay [1] deals with Plasmodium falciparum. Description: Antimalarial activity after 48 hrs against chloroquine-resistant Plasmodium falciparum W2 by [3H]hypoxanthine uptake. Type of assay: functional, organism-based.
For assay [2], the system named is Plasmodium falciparum. Description: Antimalarial activity after 48 hrs against atovaquone-resistant Plasmodium falciparum FCR3 by [3H]hypoxanthine uptake. In kind it is functional, organism-based.

SMILES strings stand for the structures. Where only a bound is given, the exact number is not on record here.

With `CCn1cc/c(=N\c2cccc(CCc3ccc(C(F)(F)F)cc3)c2)c(Cl)c1`, the values for the IC50 in assay [1] and in assay [2] were 1.6 µM and 1.87 µM, respectively.

Turning to `CC[N+](C)(CC)Cc1cc(/N=c2\ccn(C)cc2S(=O)(=O)N(C)C)ccc1OC`, the IC50 in assay [1] is more than 50 µM; in assay [2], more than 10 µM.

In the case of `CCn1cc/c(=N\c2ccc(CCc3ccccc3)cc2)c(Cl)c1`, the half-inhibitory concentration (IC50) in assay [1] was more than 10 µM; in assay [2], 3.74 µM.

With `CCn1cc/c(=N\c2cccc(CCc3ccccc3)c2)c(N)c1`, the IC50 stood at 1.67 µM in assay [1] and 2.08 µM in assay [2].

For the compound `CCN(CC)Cc1cc(/N=c2\ccn(C)c(C)c2)ccc1O`, the figures for the IC50 in assay [1] and in assay [2] were 20.7 µM and 8.09 µM, respectively.

As to `CCN(CC)Cc1cc(/N=c2\ccn(C)cc2C)ccc1O`, the IC50 in assay [1] was 33 µM; in assay [2], more than 10 µM.

Consider `Cn1cc/c(=N\c2cccc(CCc3ccccc3)c2)c(Cl)c1`, for which the IC50 in assay [1] is 4.75 µM; in assay [2] it was 2.89 µM.

On to `COc1ccc(CCc2cccc(/N=c3\ccn(C)cc3Cl)c2)cc1`, for which the IC50 worked out at 5.24 µM in assay [1] and 5.12 µM in assay [2].

Consider `CCn1cc(Cl)c(=Nc2cccc(CCc3ccc(OC(F)(F)F)cc3)c2)c(Cl)c1`, for which the IC50 in assay [1] came to 0.94 µM; in assay [2] it was 2.8 µM.

For the compound `CCN(CC)Cc1cc(N=c2ccn(C)cc2)ccc1O`, the results for the IC50 in assay [1] and in assay [2] were 8.61 µM and 7.9 µM, respectively.

For `CCn1cc/c(=N\c2cccc(CCc3ccc(OC(F)(F)F)cc3)c2)c(Cl)c1`, the IC50 in assay [1] turned out to be 1.07 µM; in assay [2] it was 1.7 µM.

Take `CCn1cc/c(=N\c2cccc(CCCc3ccccc3)c2)c(Cl)c1`: the IC50 in assay [1] came out at 2.43 µM; in assay [2] it was 2.25 µM.

As for `On1cc/c(=N\c2cccc(CCc3ccccc3)c2)c(Cl)c1`, the IC50 in assay [1] and in assay [2] was more than 8900 µM in each case.

Regarding `CCn1cc/c(=N\c2cccc(CCc3ccccc3)c2)c(Cl)c1`, the IC50 in assay [1] was 3.46 µM; in assay [2], 3.53 µM.

In the case of `CCn1cc/c(=N\c2cccc(CCc3ccc(Cl)cc3)c2)c(Cl)c1`, the IC50 in assay [1] is 3.24 µM; in assay [2], 2.17 µM.

On to `CCn1cc/c(=N\c2cccc(CCc3ccc(OC)cc3)c2)c(Cl)c1`, for which the IC50 worked out at 3.44 µM in assay [1] and 3.95 µM in assay [2].

As for `CCn1cc/c(=N\c2ccccc2CCc2ccccc2)c(Cl)c1`, the figures for the IC50 in assay [1] and in assay [2] were 6.77 µM and 3.19 µM, respectively.

For `Cn1cc/c(=N\c2cccc(CCc3ccccc3)c2)c(N)c1`, the results for the IC50 in assay [1] and in assay [2] were 1.47 µM and 2.21 µM, respectively.

On to `CC[N+](C)(CC)Cc1cc(/N=c2\ccn(C)c(C)c2)ccc1O`, for which the 50% inhibitory concentration (IC50) in assay [1] was more than 50 µM; in assay [2], 9.86 µM.

Turning to `CCn1cc/c(=N\c2cccc(CCc3ccc(OC(F)(F)F)cc3)c2)c(N)c1`, the IC50 in assay [1] was determined as 3.91 µM; in assay [2] it was 1.83 µM.

In the case of `O=C1C(O)=C([C@H]2CC[C@H](c3ccc(Cl)cc3)CC2)C(=O)c2ccccc21` [ATOVAQUONE], 1.89 µM corresponded to half-maximal inhibition in assay [2] (IC50).

`Cc1nc(C)c(Cl)c(O)c1Cl` [CLOPIDOL]: the IC50 worked out at 9.73 µM in assay [1] and 3.37 µM in assay [2].

By IC50 is commonly meant the concentration needed to halve the response being measured. Low readings indicate inhibition by little substance, high ones a need for much substance.

Source of the values: ChEMBL document CHEMBL1158442, “Design, synthesis and structure-activity relationships of (1H-pyridin-4-ylidene)amines as potential antimalarials” (Bioorg Med Chem Lett, 2009).
